Assay results published in PubChem BioAssay AID1963980 (Molecular Pharmacology Branch, DTP, NCI, 2024).
Several values for one entry are separate records, joined by “and”; a condition that tells them apart may be missing. Equal entries are not always repeated.

System: 475296-252-R-J1-PDC spheroid viability
Assay: Anticancer human tumor 475296-252-R-J1-PDC patient-derived rectal carcinoma cell line growth inhibition [PI3K]
Details: spheroids with HUVEC and MSC; for viability, T/C: stronger effect = lower value
Text: Combinatorial screen of targeted agents with the PI3K inhibitors inavolisib, alpelisib, duvelisib, and copanlisib in multi-cell type tumor spheroids
A high-throughput screen of multi-cell type tumor spheroids was designed to identify active combinations of targeted small molecules and PI3K pathway inhibitors. Complex spheroids include a stromal component modeled by human endothelial cells (HUVEC) and fibroblasts modeled by human mesenchymal stem cells (MSCs). The concentration ranges selected for each drug and investigational agent were based upon clinically achievable concentrations if the clinical Cmax of the agent was known.
Compounds. The drugs and investigational agents: inavolisib (NSC800729), alpelisib (NSC765974), duvelisib (NSC772469), copanlisib (NSC816437), ipatasertib (NSC767898), afuresertib (NSC778305), talazoparib (NSC767125), sapanisertib (NSC764658), selumetinib (NSC741078), tovorafenib (DAY101, NSC766906), vemurafenib (NSC761431), ravoxertinib (NSC781343), sotorasib (NSC818433), MRTX1133 (NSC 836407), abemaciclib (NSC 768073), palbociclib (NSC758247), venetoclax (NSC 766270), SY5609 (NSC837396), enzalutamide (NSC755605), and darolutamide (NSC825331), were obtained from the National Cancer Institute (NCI) Developmental Therapeutics Program Chemical Repository. The FDA-approved anticancer drug set is available from the NCI Developmental Therapeutics Program. […] The stock solutions were prepared in dimethyl sulfoxide (DMSO, Sigma-Aldrich, St. Louis, MO, cat. D2650) at 800-fold the tested concentration and stored at -70 degrees C prior to their use. All drugs and investigational agents were tested over a range starting from a high concentration at or near the clinical Cmax and decreasing in half-log increments. If the clinical Cmax for an agent had not been determined, the highest concentration tested was 10 microM.
Cell Culture. All cells were maintained in an incubator at 37 degrees C and 5% CO2 with 95% humidity. The PDC lines were cultured according to standard operating procedures established by the NCI PDMR (https://pdmr.cancer.gov/sops/default.htm). All PDCs were thawed and cultured in Matrigel-coated flasks prepared with a working solution of 1X Ham's F-12 nutrient mix, without supplementation (Invitrogen, Waltham, MA, cat. 11765054), 100 U/mL penicillin-streptomycin (Invitrogen, cat. 15140122), and 2.5% Matrigel (Corning Inc., Corning, NY, cat. 354248) for the first three passages. The 354836-022-R-J1-PDC, 475296-252-R-J1-PDC, and 997726-040-R-J2-PDC lines were cultured in 6A media, which includes advanced DMEM/F-12 (Thermo Fisher Scientific, cat. 12634028), 10 mM HEPES (Thermo Fisher Scientific, cat. 15630080), 1X GlutaMAX supplement (Thermo Fisher Scientific, cat. 35050061), 0.1 mg/mL primocin (InvivoGen, San Diego, CA, cat. ant-pm-2), 10% defined fetal bovine serum, heat inactivated (HyClone Laboratories Inc., Logan, UT, cat. SH30070.03HI), 50% L-WRN conditioned media (ATCC, cat. CRL-3276), 1.25 mM N-Acetyl-L-cysteine (Sigma-Aldrich, cat. A9165), 10 mM nicotinamide (Sigma-Aldrich, cat. N0636), 1X B-27 supplement (Thermo Fisher Scientific, cat. 17504044), 1X N-2 supplement (Thermo Fisher Scientific, cat. 17502048), and 10 microM Y-27632 dihydrochloride (Tocris Bioscience, Bristol, United Kingdom, cat. 1254). The 624824-186-R-J2-PDC line was cultured in 6C/Colon 1B media, which includes all 6A media components plus 50 ng/mL human EGF recombinant protein (Thermo Fisher Scientific, cat. PHG0311). […]
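Further: spheroids exposed to agents for seven days before readout.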

SMILES: C#Cc1c(F)ccc2cc(O)cc(-c3ncc4c(N5CC6CCC(C5)N6)nc(OCC56CCCN5CC(F)C6)nc4c3F)c12 (stereo not given)
- viability, T/C (compound 0.0316 µM): 95.9% [middle of 4 runs]
- viability, T/C (compound 0.1 µM): 90.9% [middle of 4 runs]
- viability, T/C (compound 0.316 µM): 84.4% [middle of 4 runs]
- viability, T/C (compound 1 µM): 70.1% [middle of 4 runs]
- viability, T/C (compound 10 µM): 56.8% [middle of 4 runs]
- IC50 (curve of compound): 8.36 µM and > 10 µM

SMILES: C=CC(=O)N1CCN(c2nc(=O)n(-c3c(C)ccnc3C(C)C)c3nc(-c4c(O)cccc4F)c(F)cc23)C(C)C1 (stereo not given)
- viability, T/C (compound 0.1 µM): 98.7% [middle of 4 runs]
- viability, T/C (compound 0.316 µM): 97% [middle of 4 runs]
- viability, T/C (compound 1 µM): 105% [middle of 4 runs]
- viability, T/C (compound 3.16 µM): 110% [middle of 4 runs]
- viability, T/C (compound 10 µM): 110% [middle of 4 runs]
- IC50 (curve of compound): > 10 µM

SMILES: CNC(=O)c1ccc(N2C(=S)N(c3ccc(C#N)c(C(F)(F)F)c3)C(=O)C2(C)C)cc1F
- viability, T/C (compound 0.1 µM): 100% [middle of 4 runs]
- viability, T/C (compound 0.316 µM): 96.5% [middle of 4 runs]
- viability, T/C (compound 1 µM): 99.5% [middle of 4 runs]
- viability, T/C (compound 3.16 µM): 102% [middle of 4 runs]
- viability, T/C (compound 10 µM): 98.3% [middle of 4 runs]
- IC50 (curve of compound): > 10 µM

SMILES: Cn1cnc2c(F)c(Nc3ccc(Br)cc3Cl)c(C(=O)NOCCO)cc21 + CC(Nc1ccc2c(c1)OCCn1cc(N3C(=O)OCC3C(F)F)nc1-2)C(N)=O
- IC50 (curve of first compound, second compound 0.00316 µM): > 3 µM
- IC50 (curve of first compound, second compound 0.01 µM): > 3 µM
- IC50 (curve of first compound, second compound 0.0316 µM): > 3 µM
- IC50 (curve of first compound, second compound 0.1 µM): 1.21 µM
- IC50 (curve of first compound, second compound 0.316 µM): 0.415 µM
- IC50 (curve of first compound, second compound 1 µM): 0.142 µM
- viability, T/C (second compound 0.00316 µM, first compound 0.00949 µM): 96.4%
- viability, T/C (second compound 0.00316 µM, first compound 0.03 µM): 93.1%
- viability, T/C (second compound 0.00316 µM, first compound 0.0949 µM): 89%
- viability, T/C (second compound 0.00316 µM, first compound 0.3 µM): 74.8%
- viability, T/C (second compound 0.00316 µM, first compound 0.949 µM): 74.8%
- viability, T/C (second compound 0.00316 µM, first compound 3 µM): 60.8%
- viability, T/C (second compound 0.01 µM, first compound 0.00949 µM): 104%
- viability, T/C (second compound 0.01 µM, first compound 0.03 µM): 90.9%
- viability, T/C (second compound 0.01 µM, first compound 0.0949 µM): 90.4%
- viability, T/C (second compound 0.01 µM, first compound 0.3 µM): 65.2%
- viability, T/C (second compound 0.01 µM, first compound 0.949 µM): 72.8%
- viability, T/C (second compound 0.01 µM, first compound 3 µM): 61.4%
- viability, T/C (second compound 0.0316 µM, first compound 0.00949 µM): 95.4%
- viability, T/C (second compound 0.0316 µM, first compound 0.03 µM): 96%
- viability, T/C (second compound 0.0316 µM, first compound 0.0949 µM): 84.8%
- viability, T/C (second compound 0.0316 µM, first compound 0.3 µM): 77.3%
- viability, T/C (second compound 0.0316 µM, first compound 0.949 µM): 67.8%
- viability, T/C (second compound 0.0316 µM, first compound 3 µM): 52.3%
- viability, T/C (second compound 0.1 µM, first compound 0.00949 µM): 78.8%
- viability, T/C (second compound 0.1 µM, first compound 0.03 µM): 82.9%
- viability, T/C (second compound 0.1 µM, first compound 0.0949 µM): 71.5%
- viability, T/C (second compound 0.1 µM, first compound 0.3 µM): 65%
- viability, T/C (second compound 0.1 µM, first compound 0.949 µM): 53%
- viability, T/C (second compound 0.1 µM, first compound 3 µM): 40.4%
- viability, T/C (second compound 0.316 µM, first compound 0.00949 µM): 76.5%
- viability, T/C (second compound 0.316 µM, first compound 0.03 µM): 89.5%
- viability, T/C (second compound 0.316 µM, first compound 0.0949 µM): 66%
- viability, T/C (second compound 0.316 µM, first compound 0.3 µM): 54.8%
- viability, T/C (second compound 0.316 µM, first compound 0.949 µM): 38.7%
- viability, T/C (second compound 0.316 µM, first compound 3 µM): 23.6%
- viability, T/C (second compound 1 µM, first compound 0.00949 µM): 84.5%
- viability, T/C (second compound 1 µM, first compound 0.03 µM): 70.2%
- viability, T/C (second compound 1 µM, first compound 0.0949 µM): 57%
- viability, T/C (second compound 1 µM, first compound 0.3 µM): 38.4%
- viability, T/C (second compound 1 µM, first compound 0.949 µM): 25.4%
- viability, T/C (second compound 1 µM, first compound 3 µM): 13.5%
